Assay [1] concerns traumatic brain injury; CA3 hippocampus neurons. Kind of assay: Traumatic brain injury model (delayed neuronal death), i.v. administration. The class given is in vivo, Wistar rats. Conditions: for Neuronal densities CA3 hippocampus, i.v. administration: mean ± SD. Here is the method: (§1) Contusing device. The contusing device consisted of a stainless steel tube, 40 cm in length, perforated at 1 cm intervals to prevent air compression in the tube. Wistar rats, 230–270 g, were anesthetized with chloral hydrate, 400 mg/kg i.p., a craniotomy over the right hemisphere was made, the device guiding a falling weight onto the footplate resting upon the surface of the dura was placed perpendicular to the surface of the skull, and a force of 380 g×cm produced by a 20 g weight was selected to produce brain contusion. A maximum of 2.5 mm depression of the brain surface was allowed to avoid mechanical puncture of the dura. The center of the footplate was stereotaxically positioned 1.5 mm posterior and 2.5 mm lateral to the bregma. The rats underwent perfusion fixation 3 days after brain injury with a solution containing 4% paraformaldehyde in phosphate buffer.
Intravenous injections: Compounds were administered i.v. using a 1 ml syringe attached to a 26 gauge needle. The needle was inserted into the left femoral vein following a small skin incision. Compounds were administered in a volume of 1 ml/kg body weight over 30 sec.
(§2) Morphometric analysis in hippocampus. The damage in the hippocampal CA3 subfield was determined stereologically at 5 different rostrocaudal levels extending from 10.21 to 11.21 mm (Swanson, L. W. (1992) Brain Maps: Structure of the Rat Brain, Elsevier, Amsterdam) and throughout its mediolateral axis three days after traumatic injury. To quantitatively assess neuronal loss in the hippocampus, stereological disector technique (Cruz-Orive, L. M. & Weibel, E. R. (1990) Am. J. Physiol. 258, L148–L156) was used to estimate numerical density (NV) of pyramidal neurons. An unbiased counting frame (0.05 mm×0.05 mm; disector height 0.01 mm) and a high-aperture objective (×40) were used for sampling. Normal neurons were identified by the presence of the typical nuclei with clear nucleoplasm and distinct nucleolus surrounded by cytoplasm containing Nissl substance. The border between CA2 and CA3 subfields was considered as the point where the looser arrangement of large pyramidal cells goes into densely packed pyramidal cells of the subfield CA3. An arbitrary line connecting the lateral ends of the dentate granule cell layers was considered a junction between subfields CA3 and CA4.
(P<0.001; n=8 per group).

For assay [2] the test system is unchanged. Briefly: Traumatic brain injury model (delayed neuronal death), i.c.v. administration. The format is in vivo, Wistar rats. Conditions: for Effect of treatment on neuronal loss in the CA3 hippocampus (ANOVA): 10 μg i.c.v.; for Neuroprotective effect with delayed administration: administered i.c.v. up to 8 hrs after trauma; for Effect on hippocampal neuronal loss: injection of 10 μg into the right cerebral ventricle; for Neuroprotective effect in the traumatic brain injury model: result in words; for Neuronal densities CA3 hippocampus: traumatized right side, 10 μg i.c.v. 15 min after trauma, 3 days after injury, mean ± SD. Here is the method:
as §1
Intracerebroventricular (i.c.v.) injections: Compounds were administered i.c.v. by means of a Hamilton syringe in a volume of 5–15 μl. Injections were performed over 5 min, 15 min−8 hrs after trauma using the following stereotaxic coordinates: AP=−0.5 mm, L=−2 mm and V=−5.5 in relation to bregma (Swanson, L. W. (1992) Brain Maps: Structure of the Rat Brain, Elsevier, Amsterdam).
as §2
Dose responses of the neuroprotective effect of the compounds with the formulae 6 and 7 when administered i.c.v. 15 min after trauma to adult Wistar rats were measured. Neuronal densities were determined in the CA3 hippocampal subfield as described in the methods. Densities of CA3 neurons±Standard Deviation (=SED) in 6 stereotactic levels in the left non-traumatized side of vehicle treated rats and the traumatized right side of vehicle treated rats and in rats treated with the compounds with the formulae 6 and 7 were measured and the results listed in table 1 below. In all of the following tables the numbers (“n”) indicate the number of rats per group, where applicable.

Regarding `O=C(O)CN1C(=O)[C@@H](NC(=O)C2(C[C@@H](CCc3cccc4ccccc34)C(=O)O)CCCC2)CCc2ccccc21` [Formula 7, (2R)-2-{[1-({[(3S)-1-(carboxymethyl)-2-oxo-2,3,4,5-tetrahydro-1H-1-benzazepin-3-yl]amino)carbonyl)cyclopentyl]methyl}-4-(1-naphthyl)butanoic acid], the “Effect of treatment on neuronal loss in the CA3 hippocampus (ANOVA)” value in assay [1] (both tested doses (30 and 300 mg/kg i.v.), P<0.001, n=8 per group) was “significant protective effect”; in assay [2], “significant protective effect”. Besides, in assay [1] (i.v., 300 mg/kg vs 30 mg/kg), the “Neuroprotection of 300 mg/kg compared with 30 mg/kg (ANOVA)” value is “significantly better neuroprotection”. In addition, the “Effect on hippocampal neuronal loss” value in assay [1] (injection of 30 or 300 mg/kg i.v.) and in assay [2] was “partially prevented hippocampal neuronal loss” in each case. Also, the “Neuronal densities CA3 hippocampus, i.v. administration” value was 107.50 ± 6.99 cells × 10^3/mm^3 in assay [1] (stereotactic level 10.21, 30 mg/kg i.v.); 126.50 ± 5.53 cells × 10^3/mm^3 in assay [1] (stereotactic level 10.21, 300 mg/kg i.v.); 102.25 ± 7.89 cells × 10^3/mm^3 in assay [1] (stereotactic level 10.41, 30 mg/kg i.v.); 117.75 ± 4.95 cells × 10^3/mm^3 in assay [1] (stereotactic level 10.41, 300 mg/kg i.v.); 100.75 ± 9.91 cells × 10^3/mm^3 in assay [1] (stereotactic level 10.61, 30 mg/kg i.v.); 110.00 ± 7.01 cells × 10^3/mm^3 in assay [1] (stereotactic level 10.61, 300 mg/kg i.v.). The “Neuronal densities CA3 hippocampus, i.v. administration” value in assay [1] (stereotactic level 10.81, 30 mg/kg i.v.) is reported as 101.75 ± 9.65 cells × 10^3/mm^3; in assay [1] (stereotactic level 10.81, 300 mg/kg i.v.) it was 106.75 ± 7.48 cells × 10^3/mm^3; in assay [1] (stereotactic level 11.01, 30 mg/kg i.v.), 111.25 ± 7.55 cells × 10^3/mm^3; in assay [1] (stereotactic level 11.01, 300 mg/kg i.v.), 116.50 ± 9.06 cells × 10^3/mm^3; in assay [1] (stereotactic level 11.21, 30 mg/kg i.v.), 117.75 ± 10.11 cells × 10^3/mm^3; in assay [1] (stereotactic level 11.21, 300 mg/kg i.v.), 125.25 ± 5.01 cells × 10^3/mm^3. In addition, in assay [2], the “Neuroprotective effect with delayed administration” value was “still evident”. The “Neuroprotective effect in the traumatic brain injury model” value in assay [2] is reported as “dose-dependent neuroprotective effects”. Also, the “Neuronal densities CA3 hippocampus” value in assay [2] (stereotactic level 10.21) was determined as 107.25 ± 15.19 cells × 10^3/mm^3; in assay [2] (stereotactic level 10.41), 100.25 ± 14.71 cells × 10^3/mm^3; in assay [2] (stereotactic level 10.61), 93.50 ± 16.96 cells × 10^3/mm^3; in assay [2] (stereotactic level 10.81), 93.50 ± 12.36 cells × 10^3/mm^3; in assay [2] (stereotactic level 11.01) it was 101.50 ± 18.81 cells × 10^3/mm^3; in assay [2] (stereotactic level 11.21), 107.75 ± 16.51 cells × 10^3/mm^3.
Consider `O=C(O)CN1C(=O)[C@@H](NC(=O)C2(C[C@@H](CCc3ccccc3)C(=O)O)CCCC2)CCc2ccccc21` [Formula 6, (2R)-2-{[1-({[(3S)-1-(carboxymethyl)-2-oxo-2,3,4,5-tetrahydro-1H-1-benzaepin-3-yl]amino}carbonyl)cyclopentyl]methyl}-4-phenylbutanoic acid], for which the “Effect of treatment on neuronal loss in the CA3 hippocampus (ANOVA)” value in assay [2] was “significant protective effect”. In assay [2], the “Neuroprotective effect with delayed administration” value is recorded as “still evident”. The “Effect on hippocampal neuronal loss” value in assay [2] was “partially prevented hippocampal neuronal loss”. The “Neuroprotective effect in the traumatic brain injury model” value in assay [2] is given as “dose-dependent neuroprotective effects”. Besides, the “Neuronal densities CA3 hippocampus” value in assay [2] (stereotactic level 10.21) worked out at 112.5 ± 11.40 cells × 10^3/mm^3; in assay [2] (stereotactic level 10.41), 103.75 ± 11.80 cells × 10^3/mm^3; in assay [2] (stereotactic level 10.61), 101.75 ± 14.80 cells × 10^3/mm^3; in assay [2] (stereotactic level 10.81) it was 98.50 ± 10.68 cells × 10^3/mm^3; in assay [2] (stereotactic level 11.01), 96.75 ± 13.98 cells × 10^3/mm^3; in assay [2] (stereotactic level 11.21) it was 101.75 ± 15.17 cells × 10^3/mm^3.

Values taken from patent publication US7232813B2, “Neutral endopeptidase (NEP) and human soluble endopeptidase (hSEP) inhibitors for prophylaxis and treatment of neuro-degenerative disorders” (Solvay Pharmaceuticals B.V., priority 2004, dated 2007).
